Test results reported in US20080015186A1, “PHARMACEUTICAL CO[…] C[…] CANNABINOID RECEPTOR ANTAGONIST AND AN ANTIPSYCHOTIC” (SANOFI-AVENTIS, priority 2005, published 2008).

Assay: Effect of rimonabant on the weight gain induced by treatment with risperidone (cumulative weight gain and feed consumption)
Type: in vivo
Conditions: female Wistar rats on fat-rich feed, risperidone 0.3 mg/kg i.p., rimonabant 1 mg/kg p.o. (or vehicle p.o.)
Experimental: Female Wistar rats, fed with a fat-rich feed for the three days preceding the treatment and during the treatment, are used.
Groups of 15 animals receive each day: • group 1: risperidone (0.3 mg/kg, i.p.) and the vehicle (p.o.); • group 2: risperidone (0.3 mg/kg, i.p.) and rimonabant (1 mg/kg, p.o.); • group 3: the two vehicles (i.p. and p.o.);
On the ninth day of the treatment, the cumulative weight gain over the nine days of treatment and the feed consumption on day 9 are measured.

## Cc1nc2n(c(=O)c1CCN1CCC(c3noc4cc(F)ccc34)CC1)CCCC2 [risperidone]
15/group, daily dosing for 9 days
  Cumulative weight gain over the nine days of treatment: 23.5 g ± 1.7
Day 9 of treatment
  Mean feed intake on the ninth day: 15.0 g ± 0.7
Nine days of treatment
  Number of rats/group (%) with a weight gain <20 g: 20%
  Number of rats/group (%) with a weight gain >20 g: 80%
